Holding throughout (assay): inhibition of tumour cell growth, NCI panel, 48 h
Experiment [1] concerns LOX IMVI melanoma.
The test system of experiment [2] is NCI-H226 lung.
Experiment [3] concerns HS 578T breast.
The subject of experiment [4] is OVCAR-8 ovarian.
Experiment [5] concerns U251 CNS.
The test system of experiment [6] is CCRF-CEM leukemia.
For experiment [7], the system named is RXF 393 renal.
Experiment [8] concerns HCC-2998 colon.
Experiment [9] has as its system HL-60(TB) leukemia.
Experiment [10] relates to M14 melanoma.
The subject of experiment [11] is OVCAR-4 ovarian.
The test system of experiment [12] is SNB-75 CNS.
Experiment [13] has as its system SF-295 CNS.
Experiment [14] deals with NCI-H23 lung.
The test system of experiment [15] is SW-620 colon.
The subject of experiment [16] is SF-539 CNS.
The test system of experiment [17] is OVCAR-5 ovarian.
For experiment [18], the system named is IGROV1 ovarian.
The test system of experiment [19] is SR leukemia.

The record followed here is PubChem BioAssay (NCI).

Values joined by “and” are separate entries in the source; they are usually repeats but may differ in a detail not shown here. Identical values can stand only once.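 The compound was tested at five concentrations on cells cultured in 96-well plates, with a 48-hour exposure period. The concentration for 50% growth inhibition is given as GI50. Definition used: TGI = concentration required for complete inhibition of growth.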

On to `CN1N=C(c2ccccc2)C(C(c2ccccc2[N+](=O)[O-])C2C(=O)N(C)N=C2c2ccccc2)C1=O` (stereo unspecified), for which the TGI in experiment [1] was 77.4 µM; in [2] it was over 96.5 µM; in experiment [3], over 100 µM; in experiment [4] it was over 100 µM; in [5], over 100 µM; in experiment [6], 60.1 µM. For the same compound, the TGI in experiment [7] was over 100 µM; in experiment [8], over 100 µM; in experiment [9], 52 µM; in experiment [10] it was over 100 µM; in experiment [11], over 100 µM; in experiment [12], over 100 µM. Further, the TGI in experiment [13] is over 100 µM; in experiment [14], over 100 µM; in experiment [15] it was over 100 µM; in experiment [16], over 100 µM; in [17] it was over 100 µM; in [18], over 31.6 µM.

As to `COc1cc(C(c2cccc3ccccc23)N2C(=O)CCC2C(=O)O)cc(OC)c1OC` (stereo unspecified), the TGI in experiment [2], in experiment [3], in [4], in experiment [5], in [6] and in experiment [19] was over 100 µM in each case. The TGI in experiment [7], in experiment [9], in experiment [10], in experiment [11], in [12] and in [13] was over 100 µM each time. Besides, the TGI in experiment [14], in experiment [15], in experiment [16], in experiment [17] and in [18] was over 100 µM throughout.

As for `CCOC(=O)[C@@H]1ON2O[C@H](OC3CCCCC3c3ccccc3)C[C@H]3OC(=O)[C@@H]1C32` (stereo partly specified), the TGI in experiment [1] is over 100 µM; in [2] it was over 100 µM; in experiment [3], over 100 µM; in experiment [4], over 100 µM; in experiment [5], over 100 µM; in [6] it was 0.614 µM. The TGI in [19], in experiment [7], in experiment [8], in experiment [10], in [12] and in experiment [13] was over 100 µM throughout. Moreover, the TGI in experiment [14], in [15], in [16], in experiment [17] and in experiment [18] was over 100 µM each time.

For `CC(=O)OCC1OC(n2c(N)c(C#N)c(C)c(C#N)c2=S)C(OC(C)=O)C(OC(C)=O)C1OC(C)=O` (stereo unspecified), the TGI in [1], in experiment [2], in [3], in experiment [4], in [5] and in [6] was over 100 µM in each case. The TGI in experiment [19], in experiment [7], in [8], in experiment [10], in [11] and in experiment [12] was over 100 µM in each case. Besides, the TGI in experiment [13], in experiment [14], in experiment [15], in experiment [16], in experiment [17] and in [18] was over 100 µM each time. Further, in experiment [19], the GI50 is 39.5 µM and > 100 µM.

As for `CCN(CC)CCCNc1ccc([N+](=O)[O-])c2nc3ccc(OC)cc3c(N)c12`, the TGI in experiment [1] is 3.37 µM; in experiment [2], over 10 µM; in experiment [3], 2.68 µM; in experiment [4], 5.6 µM; in [5], over 10 µM; in experiment [6] it was 5.71 µM. The TGI was 4.05 µM in experiment [19]; over 10 µM in [7]; 4.03 µM in experiment [9]; over 6.1 µM in [10]; 4.41 µM in experiment [11]; 3.65 µM in experiment [12]. In addition, the TGI is 3.64 µM in [13]; 4.03 µM in [14]; 3.11 µM in experiment [15]; 3.46 µM in experiment [16]; over 10 µM in experiment [17]; over 5.08 µM in [18].

As to `NC(=O)C(=CNC(=S)Nc1ccc(S(=O)(=O)Nc2ccccn2)cc1)C(N)=O`, the TGI in [1], in [2], in experiment [3], in experiment [4], in experiment [5] and in experiment [6] was over 100 µM throughout. Also, the TGI in experiment [19], in experiment [7], in [10], in experiment [11], in [12] and in [13] was over 100 µM each time. The TGI in experiment [14], in experiment [15], in [16], in [17] and in experiment [18] was over 100 µM throughout.

In the case of `CC(=O)Oc1c(OC(C)C)c(C)c(O[Si](C(C)C)(C(C)C)C(C)C)c2[nH]c3ccccc3c12`, the TGI in [1], in [2], in [3], in experiment [4], in [5] and in experiment [6] was over 100 µM in each case. For the same compound, the TGI in [19] is 99.3 µM; in experiment [7] it was over 100 µM; in [9], 8.43 µM; in experiment [10], over 100 µM; in experiment [11], over 100 µM; in experiment [12], over 100 µM. Moreover, the TGI in experiment [13], in experiment [14], in [15], in experiment [16], in [17] and in experiment [18] was over 100 µM in each case.

For `C=C1C(=O)O[C@H]2C/C(C)=C/CC[C@]3(C)CCC[C@](C)(CC[C@@H]12)O3`, the TGI in experiment [1] was over 50 µM; in experiment [2], 27.7 µM; in [3], 48 µM; in experiment [4], 15.2 µM; in experiment [5] it was 17.7 µM; in [6], 3.38 µM. For the same compound, the TGI in experiment [19] is 22.5 µM; in experiment [7], 18.4 µM; in experiment [8], 14.5 µM; in experiment [11] it was 43.7 µM; in experiment [12], 43.6 µM; in [13], over 50 µM. Further, the TGI in experiment [14] is 27.2 µM; in [15], 17.7 µM; in experiment [16], 20.7 µM; in experiment [17], over 50 µM; in experiment [18], 14.5 µM.
